In the supplement of paper PMC9663587:

Tests used:
Assay in all cases: GRmax, 72 h; higher = less effect;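 note: breast cell lines in 384-well plates, nine doses across a 10^4 range, Dye Drop imaging of viable cells vs DMSO and time-zero plates, GR 0 means no net growth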
CAL120 = tested on: CAL120
EFM19 = tested on: EFM19
HCC1187 = tested on: HCC1187
HCC1954 = tested on: HCC1954
HS578T = tested on: HS578T
MCF10A = tested on: MCF10A
MCF12A = tested on: MCF12A
MDAMB468 = tested on: MDAMB468
SKBR3 = tested on: SKBR3
SUM190PT = tested on: SUM190PT
SUM229PE = tested on: SUM229PE
T47D = tested on: T47D
ZR7530 = tested on: ZR7530

Compound	GRmax, 72 h (CAL120) [GR]	GRmax, 72 h (EFM19) [GR]	GRmax, 72 h (HCC1187) [GR]	GRmax, 72 h (HCC1954) [GR]	GRmax, 72 h (HS578T) [GR]	GRmax, 72 h (MCF10A) [GR]	GRmax, 72 h (MCF12A) [GR]	GRmax, 72 h (MDAMB468) [GR]	GRmax, 72 h (SKBR3) [GR]	GRmax, 72 h (SUM190PT) [GR]	GRmax, 72 h (SUM229PE) [GR]	GRmax, 72 h (T47D) [GR]	GRmax, 72 h (ZR7530) [GR]
CO[C@H]1C[C@@H]2CC[C@@H](C)[C@@](O)(O2)C(=O)C(=O)N2CCCC[C@H]2C(=O)O[C@H]([C@H](C)C[C@@H]2CC[C@@H](OCCO)[C@H](OC)C2)CC(=O)[C@H](C)/C=C(\C)[C@@H](O)[C@@H](OC)C(=O)[C@H](C)C[C@H](C)/C=C/C=C/C=C/1C [Everolimus] (max 10 µM)	0.527	0.249	0.568	0.326	0.42	0.789	0.571	0.527	0.118	0.354	0.686	0.297	0.169
CCC(=O)Nc1ccc(C(=O)Nc2ccc(Nc3ncc4c(n3)N(C)c3ccc(C)cc3C(=O)N4C)cc2)cc1 [FMF-03-145-1]	0.191	0.175	-0.506	-0.181	-0.183	-0.0249	0.0223	-0.46	-0.0145	0.0989	-0.209	-0.0373	-0.0468
COc1cc(N2CCN(C)CC2)ccc1Nc1ncc2c(n1)N(C)c1ccccc1C(=O)N2CC(F)(F)F [FMF-03-146-1]	0.968	0.947	0.955	0.808	0.944	0.99	0.95	0.706	0.676	0.886	0.999	0.683	0.937
CN1CC[C@H](c2c(O)cc(O)c3c(=O)cc(-c4ccccc4Cl)oc23)[C@H](O)C1 [Flavopiridol] (max 1 µM)	-0.0459	-0.21	-0.885	-0.526	-0.256	-0.67	-0.15	-0.351	-0.656	-0.324	-0.181	-0.134	-0.662
CC(C)n1nc(-c2ccc3oc(N)nc3c2)c2c(N)ncnc21 [INK128/MLN0128] (max 3.162 µM)	-0.0097	-0.128	0.0961	-0.083	-0.0708	0.172	0.103	0.0572	-0.506	-0.425	0.219	-0.0486	-0.109
CC(C)NC[C@@H](C(=O)N1CCN(c2ncnc3c2[C@H](C)C[C@H]3O)CC1)c1ccc(Cl)cc1 [Ipatasertib/GDC0068] (max 10 µM)	0.599	0.066	0.409	0.251	0.442	0.647	0.654	0.309	0.356	0.525	0.499	0.133	0.438
CN(C)C(=O)c1cc2cnc(Nc3ccc(N4CCNCC4)cn3)nc2n1C1CCCC1 [LEE011/Ribociclib] (max 10 µM)	0.632	0.386	0.56	0.543	0.376	0.434	0.789	0.947	0.476	0.199	0.576	0.15	0.41
CCNC(=O)c1noc(-c2cc(C(C)C)c(O)cc2O)c1-c1ccc(CN2CCOCC2)cc1 [Luminespib/NVP-AUY922] (max 1 µM)	-0.115	0.0263	-0.476	-0.374	-0.114	-0.172	-0.316	-0.174	-0.0766	-0.433	-0.293	0.0212	0.1
CCOc1cc2ncc(C#N)c(Nc3ccc(OCc4ccccn4)c(Cl)c3)c2cc1NC(=O)/C=C/CN(C)C [Neratinib/HKI272] (max 3.162 µM)	-0.261	0.718	0.421	-0.0909	-0.161	0.0959	0.103	-0.383	-0.253	0.42	0.205	0.195	-0.532
O=C(c1cc(Cc2n[nH]c(=O)c3ccccc23)ccc1F)N1CCN(C(=O)C2CC2)CC1 [Olaparib/AZD2281] (max 10 µM)	0.269	0.63	0.0867	0.527	0.444	0.794	0.832	0.341	0.565	0.545	0.75	0.53	0.653
CC(=O)O[C@H]1C(=O)[C@@]2(C)[C@H]([C@H](OC(=O)c3ccccc3)[C@]3(O)C[C@H](OC(=O)[C@H](O)[C@@H](NC(=O)c4ccccc4)c4ccccc4)C(C)=C1C3(C)C)[C@]1(OC(C)=O)CO[C@@H]1C[C@@H]2O [Paclitaxel] (max 1 µM)	-0.199	-0.639	-0.754	-0.396	-0.375	-0.126	-0.124	-0.522	-0.34	-0.283	-0.377	-0.134	-0.597
CS(=O)(=O)N1CCN(Cc2cc3nc(-c4cccc5[nH]ncc45)nc(N4CCOCC4)c3s2)CC1 [Pictilisib/GDC0941] (max 10 µM)	0.194	-0.154	-0.293	-0.227	0.0345	0.193	0.331	-0.0613	-0.127	0.0145	0.0426	-0.147	-0.342
